Publication PMC3849007 (Journal of Experimental & Clinical Cancer Research : CR, 2013)
Where a name gives a salt, the structure may show the parent alone.

How the values were obtained:
[1] = test system: h-Tel quadruplex DNA 5′-d[AGGG(TTAGGG)3]-3′; assay: Surface plasmon resonance, quadruplex DNA; conditions: for Surface plasmon resonance K, Quadruplex (Q) DNA: 10 mM HEPES, 200 mM KCl, 3 mM EDTA, 0.01% P20, pH 7.4, equilibrium binding constant
Description: Oligonucleotides 5′-biotin-d[AG3(T2AG3)3] quadruplex and 5′-biotin-CGA3T3C(CT)2GA3T3CG were purchased from Midland Certified Reagent Company (Midland, TX).
In the present work these measurements were repeated comparing ligand binding to the same h-Tel sequence but with a different duplex sequence 5′-d[CGA3T3C(CT)2GA3T3CG]-3′ as comparator.

hERG = target: T1, hERG (Homo sapiens, UniProt Q12809); assay: hERG tail current inhibition, patch clamp assay; type: cell-based; conditions: human, HEK293 cells (hERG study), 10 μM, HEK293 cells, read-out: hERG % inhib. (10 μM)
T1 construct: expressed in transfected cells; host or cells: HEK293
T1 sequence (Q12809 whole entry): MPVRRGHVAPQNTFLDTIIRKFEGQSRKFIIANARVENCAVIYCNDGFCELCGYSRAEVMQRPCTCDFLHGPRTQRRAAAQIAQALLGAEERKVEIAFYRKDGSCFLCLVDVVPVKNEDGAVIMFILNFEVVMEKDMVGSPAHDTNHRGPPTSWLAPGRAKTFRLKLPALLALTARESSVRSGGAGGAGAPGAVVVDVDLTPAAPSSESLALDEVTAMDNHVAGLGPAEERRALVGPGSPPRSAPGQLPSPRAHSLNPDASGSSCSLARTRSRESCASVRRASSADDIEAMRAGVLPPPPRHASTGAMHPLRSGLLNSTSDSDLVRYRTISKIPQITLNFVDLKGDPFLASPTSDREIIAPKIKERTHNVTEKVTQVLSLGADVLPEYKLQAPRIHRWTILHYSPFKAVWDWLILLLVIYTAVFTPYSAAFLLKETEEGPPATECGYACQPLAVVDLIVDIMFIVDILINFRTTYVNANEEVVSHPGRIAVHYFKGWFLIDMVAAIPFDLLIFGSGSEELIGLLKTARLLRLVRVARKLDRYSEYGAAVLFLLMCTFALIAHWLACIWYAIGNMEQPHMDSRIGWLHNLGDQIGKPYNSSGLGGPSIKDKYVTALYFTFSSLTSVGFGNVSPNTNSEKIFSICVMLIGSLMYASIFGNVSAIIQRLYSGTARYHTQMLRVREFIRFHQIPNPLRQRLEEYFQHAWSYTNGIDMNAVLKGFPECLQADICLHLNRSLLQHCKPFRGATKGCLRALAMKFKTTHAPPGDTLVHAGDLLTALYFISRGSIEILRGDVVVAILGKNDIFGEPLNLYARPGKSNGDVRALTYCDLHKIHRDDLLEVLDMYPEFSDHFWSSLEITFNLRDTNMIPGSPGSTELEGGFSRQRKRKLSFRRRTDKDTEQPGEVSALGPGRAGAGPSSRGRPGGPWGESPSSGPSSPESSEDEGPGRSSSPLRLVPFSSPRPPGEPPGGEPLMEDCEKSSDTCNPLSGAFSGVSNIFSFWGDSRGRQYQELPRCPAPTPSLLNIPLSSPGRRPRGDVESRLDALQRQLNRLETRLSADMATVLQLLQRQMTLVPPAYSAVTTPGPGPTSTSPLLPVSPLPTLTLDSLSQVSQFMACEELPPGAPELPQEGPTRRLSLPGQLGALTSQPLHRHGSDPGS
Description: (§1) For hERG study, HEK293 cells were cultured (1–7 days) in DMEM/GlutaMax-1 + 10% FBS and were plated on collagen-coated dishes (about 2×10^4 cells/dish). The cell was held at -80 mV. A 50-millisecond pulse to -40 mV was delivered to measure the leaking currents, which were subtracted from the tail currents online. […] This paradigm was delivered once every 5 seconds to monitor the current amplitude. After the current amplitude stabilized, the test compound was delivered to the extracellular medium by a rapid solution changer perfusion system. During perfusion, the cell was repetitively stimulated with the protocol described above, and the current amplitude was continuously monitored. Data were acquired and analyzed by using pClamp (Axon Instruments), and Excel (Microsoft), and are reported as mean and individual values. The degree of inhibition (%) was obtained by measuring the tail current amplitude before and after drug superfusion (the difference current was normalized to control and multiplied by 100 to obtain the percent of inhibition). […] The concentration-response relationship of each compound was constructed from the percentage reductions of current amplitude by sequential concentrations. β2-adrenergic receptor CHO expressing cells were used for the receptor inhibition assay as described. The results are expressed as a percent of inhibition of control specific binding (100 - (measured specific binding/control specific binding) × 100)) obtained in the presence of the test compounds. The specific ligand binding to the receptors is defined as the difference between the total binding and the nonspecific binding determined in the presence of an excess of unlabelled ligand. All the in-vivo experiments were carried out at the Regina Elena Cancer Institute. All procedures involving animals and care were performed in compliance with our institutional animal care guidelines and with international directives (directive 2010/63/EU of the European parliament and of the council; Guide for the Care and Use of Laboratory Animals, United States National Research Council, 2011).

[2] = test system: h-Tel quadruplex (Q) DNA, 5'-biotin-d[AG3(T2AG3)3] (DNA, G4) AGGGTTAGGGTTAGGGTTAGGG; assay: surface plasmon resonance; conditions: 200 mM KCl; 10 mM HEPES, 3 mM EDTA, 0.01% P20, pH 7.4
[3] = test system: Telomere dysfunction Induced Foci in BJ-EHLT fibroblasts; assay: TIF analysis (γH2AX/TRF1 co-localization); type: cell-based, human; conditions: 24 hrs
Description: (§2) Cells were fixed in 2% formaldehyde and permeabilized in 0.25% Triton X100 in PBS for 5 min at room temperature. For immunolabeling, cells were incubated with primary antibody, then washed in PBS and incubated with the secondary antibodies. The following primary antibodies were used: pAb and mAb anti-TRF1 (Abcam Ltd.; Cambridge UK); mAb (Upstate, Lake Placid, NY) and pAb anti-γH2AX (Abcam). The following secondary antibody were used: TRITC conjugated Goat anti Rabbit, FITC conjugated Goat anti Mouse (Jackson ImmunoResearch Europe Ltd., Suffolk, UK). Fluorescence signals were recorded by using a Leica DMIRE2 microscope equipped with a Leica DFC 350FX camera and elaborated by a Leica FW4000 deconvolution software (Leica, Solms, Germany). This system permits to focus single planes inside the cell generating 3D high-resolution images. For quantitative analysis of γH2AX positivity, 200 cells on triplicate slices were scored. For TIF’s analysis, in each nucleus a single plane was analyzed and at least 50 nuclei per sample were scored.

NCI60 panel = NCI60 panel growth inhibition; type: cell-based, human
[4] = test system: h-Tel 5'-d[AGGG(TTAGGG)3]-3' (DNA, G4) AGGGTTAGGGTTAGGGTTAGGG; assay: CD melting at 290 nm; conditions: 110 mM K+ (100 mM KCl, potassium phosphate); 10 mM potassium phosphate, pH 7.0; 4 μM DNA, 3.5 mol equiv. ligand; Tm 89 ± 3
BJ-hTERT fibroblasts = assay: Proliferation assay, normal telomerised fibroblasts; type: cell-based, human; conditions: 0.5 μM, culture day 2 to 8
Description: (§3) BJ fibroblasts expressing hTERT (BJ-hTERT) or hTERT and SV40 early region (BJ-EHLT), were obtained as previously reported. Cells were grown in Dulbecco Modified Eagle Medium (D-MEM, Invitrogen Carlsbad, CA, USA) supplemented with 10% fetal calf serum, 2 mM L-glutamin and antibiotics.
(§4) 5 × 10^4 cells were seeded in 60-mm Petri plates (Nunc, MasciaBrunelli, Milano, Italy) and 24 h after plating, 0.5 μM of freshly dissolved compound was added to the culture medium. Cell counts (Coulter Counter, Kontron Instruments, Milano, Italy) and viability (trypan blue dye exclusion) were determined daily, from day 2 to day 8 of culture.

[5] = test system: γH2AX in BJ-EHLT fibroblasts; assay: Immunofluorescence for γH2AX (DNA damage response); type: cell-based, human; conditions: 0.5 μM, 24 hrs
Description: as §2

[6] = test system: h-Tel 5'-d[AGGG(TTAGGG)3]-3' (DNA, G4) AGGGTTAGGGTTAGGGTTAGGG; assay: CD spectroscopy, induced anti-parallel structure; conditions: no significant K+; 298 K; 3.5 molar equivalents of ligand; band at 290 nm emerges
[7] = test system: h-Tel (anti-parallel) quadruplex; assay: CD thermal unfolding of h-Tel quadruplex; type: binding, human
Description: CD spectra were recorded on an Applied Photophysics Pi-Star-180 spectrophotometer (Applied Photophysics Ltd, Surrey, UK). The optical system was configured with a 75 W Xe lamp, circular light polarizer and end-mounted photomultiplier. The instrument had previously been calibrated with (D)-camphorsulfonic acid. Temperature was regulated using a Neslab RTE-300 circulating programmable water bath (Neslab Inc). CD spectra were recorded at 298 K in a 10 mm path length cell over a wavelength range of 215–345 nm in steps of either 1 0r 2 nm, with 3 nm entrance/exit slit widths: the number of counts was set to 10,000 with adaptive sampling set to 500,000. The spectra were corrected by subtracting the spectrum of the same buffer solution of 100 mM potassium chloride and 10 mM potassium phosphate at pH 7.0. Annealing and melting profiles were recorded using a thermoelectric temperature controller (Melcor) on 4 μM DNA samples with and without 3.5 mol.equiv. of ligands using 0.5 K temperature increments and a cooling or heating rate of 0.2 K/min over the temperature range 298-368 K.
This analysis was extended to examine the effects of ligand binding on thermal stability by measuring the unfolding curves at 290 nm of the complexes formed in K^+ solution, corresponding to the CD spectra shown in Figure 4a. Monitoring the thermal unfolding transition for h-Tel produces a sigmoidal unfolding curve with a transition mid-point Tm value of 72 ± 3°C (Figure 4c). All three ligands show significant effects in enhancing the stability of the quadruplex by shifting the Tm values to higher temperatures (∆Tm ~ 15-19°C compared to h-Tel without bound ligands) (Table 1).

BJ-EHLT fibroblasts = assay: Proliferation assay, transformed fibroblasts; type: cell-based, human; conditions: 0.5 μM, culture day 2 to 8
Description: as §3, §4

[8] = target: T2, human recombinant β2 adrenergic receptor (Homo sapiens, UniProt P07550); assay: β2-adrenergic receptor binding assay (CHO expressing cells)
T2 construct: expressed in transfected cells; host or cells: CHO
T2 sequence (P07550 whole entry): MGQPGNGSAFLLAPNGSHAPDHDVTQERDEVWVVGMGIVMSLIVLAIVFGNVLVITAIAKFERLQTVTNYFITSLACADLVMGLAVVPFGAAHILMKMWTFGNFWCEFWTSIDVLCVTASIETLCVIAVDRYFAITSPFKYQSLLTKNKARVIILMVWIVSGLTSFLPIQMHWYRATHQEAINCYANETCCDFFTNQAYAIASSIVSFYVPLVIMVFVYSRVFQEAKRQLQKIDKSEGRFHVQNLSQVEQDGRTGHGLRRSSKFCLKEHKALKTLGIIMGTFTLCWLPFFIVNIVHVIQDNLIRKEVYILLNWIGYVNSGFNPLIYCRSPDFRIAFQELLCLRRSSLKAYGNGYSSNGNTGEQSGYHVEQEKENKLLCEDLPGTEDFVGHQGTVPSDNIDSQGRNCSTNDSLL
Description: as §1, with “Institute.” for “Institute. All procedures involving animals and care were performed in compliance with our institutional animal care guidelines and with international directives (directive 2010/63/EU of the European parliament and of the council; Guide for the Care and Use of Laboratory Animals, United States National Research Council, 2011).”
Inhibition of receptor was reported as inhibition of control specific binding (100 - (measured specific binding/control specific binding) × 100) obtained in the presence of the test compounds.

[9] = test system: duplex (D) DNA hairpin, 5'-biotin-CGA3T3C(CT)2GA3T3CG (DNA, hairpin) CGAAATTTCCTCTGAAATTTCG; assay: surface plasmon resonance; conditions: 200 mM KCl; 10 mM HEPES, 3 mM EDTA, 0.01% P20, pH 7.4
[10] = test system: telomere aberrations in BJ-EHLT fibroblasts; assay: Telomere FISH on metaphase spreads; type: cell-based, human; conditions: 0.5 μM, 72 hrs
Description: For metaphase chromosome preparation cells were treated with demecolcine (Sigma, Milan, Italy) 0.1 mg/ml for 4 h and then harvested and washed in 75 mM KCl for 5 min at 37°C. After centrifugation cells were fixed in MeOH/acetic acid 3:1 overnight and then spread on slides. Hybridization with rhodamine-coupled PNA was performed as described. For each sample 20 metaphases per slice on triplicate were scored. Images of the metaphases were captured with a 100 × objective.

Question: For `CC[n+]1c2c3c(cc(C)cc3c3cc(F)ccc31)N(C)c1ccc(F)cc1-2` [Compound 8, 13-Ethyl-3,11-difluoro-6,8-dimethyl-8H-quino[4,3,2-kl]acridinium trifluoromethosulfate], which “Surface plasmon resonance K, Quadruplex (Q) DNA” value [1] is on record?
Answer: 600000 M⁻¹

Question: And the “fold reduction in on-target effect against h-Tel DNA sequence (SPR) relative to 1” value ([1]; relative to compound 1)?
Answer: > 10 fold

Question: And the inhibition at 10 µM (hERG)?
Answer: 18%

Question: Which melting point does the source give for `CC[n+]1c2c3c(cc(C)cc3c3cc(F)ccc31)N(C)c1ccc(F)cc1-2` (as salt: sulfate) [Compound 8, 13-Ethyl-3,11-difluoro-6,8-dimethyl-8H-quino[4,3,2-kl]acridinium trifluoromethosulfate] here?
Answer: > 250 °C (dec.)

Question: With `CC[n+]1c2c3c(cc(C)cc3c3cc(F)ccc31)N(C)c1ccc(F)cc1-2` as the compound, how does the K [2] read?
Answer: 600000 M⁻¹

Question: With `CC(=O)Nc1ccc2c3cccc4c3c([n+](C)c2c1)-c1ccccc1N4C` [Compound 2, 2-Acetylamino-8,13-dimethyl-8H-quino[4,3,2-kl]-acridinium iodide] as the compound, how does the “percentage of TIF-positive cells” value ([3]; cells with more than four γH2AX/TRF1 co-localizations) read?
Answer: comparable levels with respect to 1

Question: What about the “number of TIFs per nucleus” value ([3]; mean) of the same compound?
Answer: ca. eight

Question: And the “Surface plasmon resonance K, Quadruplex (Q) DNA” value [1]?
Answer: 1.5e+07 M⁻¹

Question: What about the GI50 (NCI60 panel; Homo sapiens, NCI data, read-out: Mean GI50 value from the NCI60 panel) of the same compound?
Answer: 12 µM

Question: What about the “effect on cell proliferation in a panel of different histotype tumor cell lines” value (NCI60 panel; several human cancer cell lines) of the same compound?
Answer: maintained an anti-proliferative effect

Question: What about the “∆Tm” value [4] of the same compound?
Answer: 19 °C

Question: And the “inhibition of cell proliferation in normal telomerized fibroblasts” value (BJ-hTERT fibroblasts)?
Answer: did not induce inhibition of cell proliferation

Question: And the “percentage of cells positive for γH2AX” value [5]?
Answer: quite similar to compound 1

Question: And the binding [6]?
Answer: yes

Question: And the “CD study thermal stability ∆Tm” value ([7]; compared to h-Tel without bound ligand (Tm 70 ± 3))?
Answer: 19 °C

Question: What about the “CD study thermal stability Tm” value ([7]; h-Tel 4 μM with 3.5 mol.equiv. ligand, K+ solution, unfolding at 290 nm) of the same compound?
Answer: 89 ± 3 °C

Question: What about the “day of maximum effect on cell proliferation” value (BJ-EHLT fibroblasts) of the same compound?
Answer: 6 days

Question: And the inhibition at 10 µM ([8]; 10 μM, inhibition of control specific binding, CHO cells, read-out: B2 adrenergic % inhib. (10 μM))?
Answer: 24%

Question: What about the “decay of β2-adrenergic receptor inhibition compared to 1” value ([8]; comparing 1 to the compound) of the same compound?
Answer: 75%

Question: And the K [9]?
Answer: 400000 M⁻¹

Question: And the “telomere aberrations (telomere doublets, sister telomere fusions)” value [10]?
Answer: quantitatively similar to the lead compound

Question: And the K [2]?
Answer: 1.5e+07 M⁻¹
